Laboratory results taken from PubChem BioAssay (NCI).
Several values for one entry are separate records, joined by “and”; a condition that tells them apart may be missing. Equal entries are not always repeated.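 In this assay, cells in 96-well plates receive the compound at five concentrations for 48 hours. Endpoints are linearly interpolated between the surrounding concentrations. Abbreviation: GI50, concentration required for 50% inhibition of growth. At the TGI there is no net growth.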 Where a SMILES comes first, the peptide text is derived from it. The star is where a group is joined. X36 = O=C(c1ccc(-c2ccc(Cl)cc2Cl)o1)*

Legend:
Assay in all cases: NCI-60 cell line screen, 48 h
DMS 114 small cell lung = system: DMS 114 small cell lung
HOP-62 NSCLC = system: HOP-62 NSCLC
NCI-H23 lung = system: NCI-H23 lung
KM12 colon = system: KM12 colon
M19-MEL melanoma = system: M19-MEL melanoma
TK-10 renal = system: TK-10 renal
UO-31 renal = system: UO-31 renal
RPMI-8226 leukemia = system: RPMI-8226 leukemia
LXFL 529 NSCLC = system: LXFL 529 NSCLC
KM20L2 colon = system: KM20L2 colon
ACHN renal = system: ACHN renal
DMS 273 small cell lung = system: DMS 273 small cell lung
CAKI-1 renal = system: CAKI-1 renal
HS 578T breast = system: HS 578T breast

Compound	TGI (DMS 114 small cell lung)	TGI (HOP-62 NSCLC)	TGI (NCI-H23 lung)	TGI (KM12 colon)	TGI (M19-MEL melanoma)	TGI (TK-10 renal)	TGI (UO-31 renal)	TGI (RPMI-8226 leukemia)	TGI (LXFL 529 NSCLC)	TGI (KM20L2 colon)	TGI (ACHN renal)	TGI (DMS 273 small cell lung)	TGI (CAKI-1 renal)	GI50 (HOP-62 NSCLC)	GI50 (NCI-H23 lung)	GI50 (KM12 colon)	GI50 (CAKI-1 renal)	GI50 (TK-10 renal)	TGI (HS 578T breast)	GI50 (ACHN renal)
O=C1OC2(OC2c2ccccc2)c2ccccc21 (stereo unspecified)	11 µM	> 100 µM	> 100 µM	> 100 µM	> 100 µM	> 100 µM	> 100 µM	> 100 µM	> 100 µM	> 100 µM	> 100 µM	> 100 µM								
CC(=O)C1=C(C)NC2C=CC=CN12 (stereo unspecified)	> 100 µM	> 100 µM	> 100 µM	> 100 µM	> 100 µM	> 100 µM	> 100 µM	> 100 µM		> 100 µM	> 100 µM	> 100 µM	> 100 µM							
COc1cc(CNc2ccc(SC)cc2)cc(OC)c1OC	20.9 µM and 8.02 µM	> 100 µM and 61.1 µM	44 µM and 46.7 µM	> 62.7 µM and 20.7 µM		> 93.3 µM and 77.5 µM	83.1 µM and 51.1 µM	> 78.3 µM and 66.2 µM	> 100 µM	19.5 µM and 23.3 µM	> 100 µM	28.1 µM and > 36.7 µM	> 97.1 µM	12.1 µM and 4.68 µM	14.6 µM and 6.14 µM	4.44 µM and 2.21 µM	22.5 µM and 11.1 µM	41 µM and 16.7 µM	> 77.7 µM	22.8 µM and 11 µM
CCCC(C)NC1=C(NC(C)=O)C(=O)c2ccccc2C1=O (stereo unspecified)		> 100 µM	> 100 µM	> 100 µM	> 100 µM	> 100 µM	> 100 µM		> 100 µM	> 100 µM	> 100 µM	> 100 µM								
O=C(CSc1nnc(Cc2ccccc2)o1)Nc1ccc([N+](=O)[O-])cc1	72.2 µM	> 100 µM	> 100 µM	> 100 µM	> 100 µM	> 100 µM	> 100 µM	> 100 µM	> 100 µM	> 100 µM	> 100 µM	> 100 µM								
COC(=O)N/N=C(\C)C(CN1CCCCC1)C(C1=C(O)c2ccccc2OC1)c1ccccc1 (stereo unspecified)	> 100 µM	> 100 µM	> 100 µM	> 100 µM	> 100 µM	> 100 µM	> 100 µM	> 100 µM	> 100 µM	> 100 µM	> 100 µM	> 100 µM	> 100 µM							
O=C1c2ccccc2CCCCCCCCCCC12OCCCO2	37.5 µM	> 100 µM	> 100 µM	> 100 µM	> 100 µM	> 100 µM	> 100 µM	40 µM	> 100 µM	71.7 µM	> 100 µM	> 100 µM	95.7 µM							
O=C1c2ccccc2C(=O)N1Cc1ccccc1-c1c2nc(c(-c3ccccc3CN3C(=O)c4ccccc4C3=O)c3ccc([nH]3)c(-c3ccccc3CN3C(=O)c4ccccc4C3=O)c3nc(c(-c4ccccc4CN4C(=O)c5ccccc5C4=O)c4ccc1[nH]4)C=C3)C=C2	> 100 µM	> 100 µM	> 100 µM	> 100 µM	> 100 µM	> 100 µM	> 100 µM	> 100 µM	> 100 µM	> 100 µM	> 100 µM	> 100 µM	> 100 µM							
Oc1cc(C2OCCCO2)cc(O)c1O	> 100 µM	> 100 µM	> 100 µM	> 100 µM	> 100 µM	> 100 µM	> 100 µM	> 100 µM	> 100 µM	> 100 µM	> 100 µM	> 100 µM	> 100 µM							
CC(=O)OC1CC2C(C)(C)OC(=O)CC(OC(C)=O)[C@]2(C)C2CCC3(C)C(=CCC3[C@H]3COC(=O)C3)[C@]12C (stereo partly specified)	> 100 µM	> 100 µM	> 100 µM	> 100 µM	> 100 µM	> 100 µM	> 100 µM	> 100 µM	> 100 µM	> 100 µM	> 100 µM	> 100 µM	> 100 µM							
O=C1Nc2c(ccc(Cl)c2I)C1=O	30.1 µM	48.3 µM	30.7 µM	65.6 µM	24.1 µM	99.2 µM	32.1 µM	35.8 µM	27.5 µM	> 100 µM	29 µM	37 µM	30.6 µM							
C=C1C(=O)CC2C(=O)C(C)(O)CC/C=C(\C)C(=O)CC12 (stereo unspecified)		> 100 µM	45.7 µM	> 100 µM		34.4 µM	21.1 µM	82.9 µM			27.3 µM		7.98 µM						43.5 µM	
COc1cc(C2SCC(=O)N2c2ccc(-c3ccc(-n4c(-c5ccccc5)nc5ccccc5c4=O)cc3)cc2)cc(OC)c1OC (stereo unspecified)		85.5 µM	> 100 µM	62.9 µM		> 100 µM	> 100 µM	> 100 µM			> 100 µM		45.8 µM						> 100 µM	
CC1Cn2c(nc3ccccc32)NC1=O (stereo unspecified)		> 100 µM	> 100 µM	> 100 µM		> 100 µM	> 100 µM	> 100 µM			> 100 µM		> 100 µM						> 100 µM	
OCC1OC(n2cnc3c(Cl)nc(Nc4ccccc4)nc32)CC1O (stereo unspecified)		> 100 µM	> 100 µM	> 100 µM		> 100 µM	33.7 µM	> 100 µM			32.1 µM		3.4 µM						90.1 µM	
O=C(Cc1ccccc1)NN1C(=O)C(Cl)C1c1ccc(O)cc1 (stereo unspecified)	> 100 µM	> 100 µM	> 100 µM	> 100 µM	> 100 µM	> 100 µM	> 100 µM	> 100 µM		> 100 µM	> 100 µM	> 100 µM	> 100 µM							
CN(C)Cc1cc(C(=O)/C=C/c2ccccc2Cl)cc(CN(C)C)c1O		26.2 µM	35 µM	20.3 µM		34.9 µM	22.4 µM	56.5 µM			16.3 µM		14.4 µM						46.3 µM	
Cc1ccc(-c2cc(N)n(-c3nc4c(c(=O)n(C)c(=O)n4C)n3C)n2)cc1		63.9 µM	> 100 µM	> 100 µM		> 100 µM	> 100 µM	> 100 µM			> 100 µM		> 100 µM						> 100 µM	
CC(=O)O[C@H]1CC[C@@]2(C)C(=CC[C@H]3[C@@H]4C[C@H](N5CCCC5)[C@H](OC(C)=O)[C@@]4(C)CC[C@@H]32)C1		> 100 µM	> 100 µM	> 100 µM		> 100 µM	> 100 µM	> 100 µM			> 100 µM		> 100 µM						> 100 µM	
Cc1ccc2c(=O)cc(-c3cccs3)[nH]c2n1		> 100 µM	> 63.6 µM	> 100 µM		> 100 µM	35.6 µM	> 49.4 µM			> 100 µM		> 100 µM						> 71.4 µM	
CC(C)C(=O)/C=C/c1ccc(Br)cc1	37 µM		38.2 µM	27.5 µM	28.9 µM	32.3 µM	30.1 µM	39.2 µM	33.8 µM	21.5 µM	25.4 µM	28.7 µM								
CCC(C)C(NC(=O)CNC(=O)C(Cc1ccccc1)NC(=O)C1CCCN1C(=O)c1ccc(-c2ccc(Cl)cc2Cl)o1)C(=O)OC (stereo unspecified) (X36-PFGI-OMe; configuration not given here)		> 100 µM	> 100 µM	> 100 µM		> 100 µM	> 100 µM	> 100 µM			> 100 µM		> 100 µM						> 100 µM	
CCCCCCCCCCCCCCCCCC(=O)O[C@H](COC(=O)CCCCCCCCCCC)COC(=O)CCCCCCCCCCCCCCC	> 100 µM	> 100 µM	> 100 µM		> 100 µM	> 100 µM	> 100 µM	> 100 µM	> 100 µM	> 100 µM	> 100 µM	> 100 µM	> 100 µM							
COc1ccc(Nc2nc(NS(=O)(=O)c3cc(C)c(Cl)cc3S)n[nH]2)cc1		> 100 µM	> 100 µM	> 100 µM		> 100 µM	> 100 µM	> 100 µM			> 100 µM		> 100 µM						> 100 µM	
CC1=NN(c2ccc(S(=O)(=O)O)cc2)C2(C1)SCC(=O)N2c1nc2ccccc2s1 (stereo unspecified)		> 100 µM	> 100 µM	> 100 µM		> 100 µM	> 100 µM	> 100 µM			> 100 µM		> 100 µM						> 100 µM	
CC(=O)Nc1cc2c(s1)CCC1CC(=O)NN=C21 (stereo unspecified)	> 100 µM	> 100 µM	> 100 µM	> 100 µM	> 100 µM	> 100 µM	> 100 µM	> 100 µM	> 100 µM	> 100 µM	> 100 µM	> 100 µM								
CCOC(=O)/C=C(/C(=O)OCC)n1ccc(N)nc1=O		> 100 µM	> 100 µM	> 100 µM		> 100 µM	> 100 µM	> 100 µM			> 100 µM		> 100 µM						> 100 µM	
O=c1oc2ccccc2c(Nc2ccc3c(c2)Oc2ccccc2O3)c1[N+](=O)[O-]		> 100 µM	46.1 µM	> 100 µM		40.1 µM	> 100 µM	> 100 µM			32.7 µM		> 100 µM						82.8 µM	
CC(=O)N1N=C(c2ccc3ccccc3c2O)CC1C(=O)c1ccco1 (stereo unspecified)		> 100 µM	> 100 µM	44.8 µM		> 100 µM	> 100 µM	85 µM			> 100 µM		> 100 µM						> 100 µM	
